The record followed here is ChEMBL document CHEMBL1151356, “An investigation of the antitumor activity of Sesbania drummondii” (1981).

The structures appear in SMILES notation. Active and inactive are the calls of the source. The calls are words filed in the database; no cut-off is given here.

This assay relates to P388. In words: In vivo cytotoxicity against mouse P388 cells up to 1.4 mg/kg relative to control. The format is functional, organism-based. Further details: dose 1.4 mg/kg.

As to `O=C1NC(=O)[C@@]2(CC[C@@H](O)C2)c2ccncc21`, the outcome was inactive.
